Earlier results in PMC8287861 (Frontiers in Microbiology, 2021).
Values after ≈ are worked out from the molar mass of the structure shown.

Tests used:
Set-up in all cases: method as in Lomovskaya et al. (2020b)
PAM4890 IMP-19 = settings: PAM4890, IMP-19, class B1; ref Lomovskaya et al. (2020b)
PAM4878 TEM-10 = settings: PAM4878, TEM-10, class A; ref Lomovskaya et al. (2020b)
PAM4825 MIR-1 = settings: PAM4825, MIR-1, class C; ref Lomovskaya et al. (2020b)
PAM4196 IMP-13 = settings: PAM4196, IMP-13, class B1; ref Lomovskaya et al. (2020b)
PAM4881 VIM-7 = settings: PAM4881, VIM-7, class B1; ref Lomovskaya et al. (2020b)
PAM4820 CTX-M-25 = settings: PAM4820, CTX-M-25, class A; ref Lomovskaya et al. (2020b)
PAM4917 NDM-7 = settings: PAM4917, NDM-7, class B1; ref Lomovskaya et al. (2020b)
PAM4745 P99 = settings: PAM4745, P99, class C; ref Lomovskaya et al. (2020b)
PAM4877 OXA-58 = settings: PAM4877, OXA-58, class D-CARB; ref Lomovskaya et al. (2020b)
PAM4840 OXY-6-2 = settings: PAM4840, OXY-6-2, class A; ref Lomovskaya et al. (2020b)
PAM4819 CTX-M-2 = settings: PAM4819, CTX-M-2, class A; ref Lomovskaya et al. (2020b)
PAM4864 SFC-1 = settings: PAM4864, SFC-1, class A-CARB; ref Lomovskaya et al. (2020b)
PAM4795 VIM-1 = settings: PAM4795, VIM-1, class B1; ref Lomovskaya et al. (2020b)
PAM4888 IMP-4 = settings: PAM4888, IMP-4, class B1; ref Lomovskaya et al. (2020b)
PAM4875 OXA-23 = settings: PAM4875, OXA-23, class D-CARB; ref Lomovskaya et al. (2020b)
PAM4175 pUCP24 vector = settings: ref Lomovskaya et al. (2020b)
PAM4874 SHV-12 = settings: PAM4874, SHV-12, class A; ref Lomovskaya et al. (2020b)
PAM4889 IMP-26 = settings: PAM4889, IMP-26, class B1; ref Lomovskaya et al. (2020b)
PAM4743 CTX-M-15 = settings: PAM4743, CTX-M-15, class A; ref Lomovskaya et al. (2020b)
PAM4910 VEB-2 = settings: PAM4910, VEB-2, class A; ref Lomovskaya et al. (2020b)
PAM4744 SME-2 = settings: PAM4744, SME-2, class A-CARB; ref Lomovskaya et al. (2020b)
PAM4794 NMC-1 = settings: PAM4794, NMC-1, class A-CARB; ref Lomovskaya et al. (2020b)
PAM4912 VEB-3 = settings: PAM4912, VEB-3, class A; ref Lomovskaya et al. (2020b)
PAM4938 VCC-1 = settings: PAM4938, VCC-1, class A-CARB; ref Lomovskaya et al. (2020b)
PAM4827 OXA-1 = settings: PAM4827, OXA-1, class D; ref Lomovskaya et al. (2020b)

## CC(C)(O/N=C(\C(=O)N[C@@H]1C(=O)N2C(C(=O)[O-])=C(C[n+]3ccccc3)CS[C@H]12)c1csc(N)n1)C(=O)O [Ceftazidime, ceftazidime]
PAM4890 IMP-19
  MIC: >64 µg/mL
PAM4878 TEM-10
  MIC: >64 µg/mL
PAM4825 MIR-1
  MIC: 16 µg/mL (≈ 29.3 µM)
PAM4196 IMP-13
  MIC: 64 µg/mL (≈ 117 µM)
PAM4881 VIM-7
  MIC: 0.5 µg/mL (≈ 0.915 µM)
PAM4820 CTX-M-25
  MIC: 8 µg/mL (≈ 14.6 µM)
PAM4917 NDM-7
  MIC: >64 µg/mL
PAM4745 P99
  MIC: 64 µg/mL (≈ 117 µM)
PAM4877 OXA-58
  MIC: 0.25 µg/mL (≈ 0.457 µM)
PAM4840 OXY-6-2
  MIC: 0.5 µg/mL (≈ 0.915 µM)
PAM4819 CTX-M-2
  MIC: 1 µg/mL (≈ 1.83 µM)
PAM4864 SFC-1
  MIC: 2 µg/mL (≈ 3.66 µM)
PAM4795 VIM-1
  MIC: 64 µg/mL (≈ 117 µM)
PAM4888 IMP-4
  MIC: >64 µg/mL
PAM4875 OXA-23
  MIC: 0.25 µg/mL (≈ 0.457 µM)
PAM4175 pUCP24 vector
  MIC: 0.25 µg/mL (≈ 0.457 µM)
PAM4874 SHV-12
  MIC: >64 µg/mL
PAM4889 IMP-26
  MIC: >64 µg/mL
PAM4743 CTX-M-15
  MIC: 32 µg/mL (≈ 58.5 µM)
PAM4910 VEB-2
  MIC: >64 µg/mL
PAM4744 SME-2
  MIC: 0.5 µg/mL (≈ 0.915 µM)
PAM4794 NMC-1
  MIC: 1 µg/mL (≈ 1.83 µM)
PAM4912 VEB-3
  MIC: >64 µg/mL

## CCN1CCN(C(=O)N[C@@H](C(=O)N[C@@H]2C(=O)N3[C@@H]2SC(C)(C)[C@@H]3C(=O)O)c2ccccc2)C(=O)C1=O [Piperacillin, piperacillin]
PAM4890 IMP-19
  MIC: 0.25 µg/mL (≈ 0.483 µM)
PAM4878 TEM-10
  MIC: 32 µg/mL (≈ 61.8 µM)
PAM4825 MIR-1
  MIC: 8 µg/mL (≈ 15.5 µM)
PAM4196 IMP-13
  MIC: 0.5 µg/mL (≈ 0.966 µM)
PAM4881 VIM-7
  MIC: 2 µg/mL (≈ 3.86 µM)
PAM4820 CTX-M-25
  MIC: >64 µg/mL
PAM4917 NDM-7
  MIC: 32 µg/mL (≈ 61.8 µM)
PAM4745 P99
  MIC: 64 µg/mL (≈ 124 µM)
PAM4877 OXA-58
  MIC: 4 µg/mL (≈ 7.73 µM)
PAM4840 OXY-6-2
  MIC: >64 µg/mL
PAM4819 CTX-M-2
  MIC: 64 µg/mL (≈ 124 µM)
PAM4864 SFC-1
  MIC: >64 µg/mL
PAM4795 VIM-1
  MIC: 16 µg/mL (≈ 30.9 µM)
PAM4888 IMP-4
  MIC: 0.5 µg/mL (≈ 0.966 µM)
PAM4875 OXA-23
  MIC: 16 µg/mL (≈ 30.9 µM)
PAM4175 pUCP24 vector
  MIC: 0.125 µg/mL (≈ 0.242 µM)
PAM4874 SHV-12
  MIC: >64 µg/mL
PAM4889 IMP-26
  MIC: 0.125 µg/mL (≈ 0.242 µM)
PAM4938 VCC-1
  MIC: 16 µg/mL (≈ 30.9 µM)
PAM4743 CTX-M-15
  MIC: >64 µg/mL
PAM4910 VEB-2
  MIC: 16 µg/mL (≈ 30.9 µM)
PAM4744 SME-2
  MIC: 8 µg/mL (≈ 15.5 µM)
PAM4794 NMC-1
  MIC: 16 µg/mL (≈ 30.9 µM)
PAM4827 OXA-1
  MIC: 4 µg/mL (≈ 7.73 µM)
PAM4912 VEB-3
  MIC: 8 µg/mL (≈ 15.5 µM)
